# Activity calls are given as the source filed them. The rule behind the calls is not given here.
# Assays:
# RNA [1] = assay: Binding affinity to complementary RNA (unknown origin) in sodium phosphate buffer assessed as melting temperature of PNA-RNA duplex; assay type: nucleic-acid assay
# RNA [2] = assay: Binding affinity to complementary RNA (unknown origin) with mismatch bases in sodium phosphate buffer; assay type: nucleic-acid assay
# Keratinocyte [3] = assay: Inhibition of PDZK1IP1 mRNA expression in human keratinocytes incubated for 24 hrs by RT-qPCR analysis; assay type: functional, cell-based
# Keratinocyte [4] = assay: Inhibition of PDZK1IP1 mRNA expression in human keratinocytes at 0.01 to 1 uM incubated for 24 hrs by RT-qPCR analysis; assay type: functional, cell-based; details: dose 0.01-1 µM
# Keratinocyte [5] = assay: Inhibition of PDZK1IP1 mRNA expression in human keratinocytes at 1 uM incubated for 24 hrs by RT-qPCR analysis; assay type: functional, cell-based
Compound,Tm (RNA [1]) [°C],Activity (RNA [2]),inhibition (Keratinocyte [3]),inhibition (Keratinocyte [4]),inhibition (Keratinocyte [5])
Cc1cn(CC(=O)N(CCNC(=O)CN(CCNC(=O)CN(CCNC(=O)CN(CCNC(=O)CN(CCNC(=O)CN(CCNC(=O)CN(CCNC(=O)CN(CCNC(=O)CN(CCN)C(=O)Cn2cnc3c(N)nc(NCCCCCN)nc32)C(=O)Cn2ccc(N)nc2=O)C(=O)Cn2cnc3c(=O)[nH]c(N)nc32)C(=O)Cn2cnc3c(=O)[nH]c(NCCCCCCN)nc32)C(=O)Cn2ccc(N)nc2=O)C(=O)Cn2cc(C)c(=O)[nH]c2=O)C(=O)Cn2cc3cc(COCCN)[nH]c3nc2=O)C(=O)Cn2ccc(N)nc2=O)CC(=O)NCCN(CC(=O)NCCN(CC(=O)NCCN(CC(=O)NCCN(CC(=O)NCCN(CC(N)=O)C(=O)Cn2cnc3c(=O)[nH]c(N)nc32)C(=O)Cn2cnc3c(=O)[nH]c(NCCCCCCN)nc32)C(=O)Cn2cc(C)c(=O)[nH]c2=O)C(=O)Cn2ccc(N)nc2=O)C(=O)Cn2cc3cc(COCCN)[nH]c3nc2=O)c(=O)[nH]c1=O,81,inactive,–,–,–
Cc1cn(CC(=O)N(CCN)CC(=O)NCCN(CC(=O)NCCN(CC(=O)NCCN(CC(=O)NCCN(CC(=O)NCCN(CC(=O)NCCN(CC(=O)NCCN(CC(=O)NCCN(CC(=O)NCCN(CC(=O)NCCN(CC(=O)NCCN(CC(=O)NCCN(CC(=O)NCCN(CC(=O)NCCN(CC(=O)NCCN(CC(=O)NCCN(CC(=O)NCCN(CC(=O)NCCN(CC(=O)NCCN(CC(=O)O)C(=O)Cn2cnc3c(=O)[nH]c(NCCCCCCN)nc32)C(=O)Cn2ccc3c(=O)[nH]c(N)nc32)C(=O)Cn2cnc3c(=O)[nH]c(N)nc32)C(=O)Cn2cnc3c(=O)[nH]c(NCCCCCCN)nc32)C(=O)Cn2cc(C)c(=O)[nH]c2=O)C(=O)Cn2ccc(N)nc2=O)C(=O)Cn2ccc(N)nc2=O)C(=O)Cn2ccc(N)nc2=O)C(=O)Cn2cc(C)c(=O)[nH]c2=O)C(=O)Cn2cc3cc(COCCN)[nH]c3nc2=O)C(=O)Cn2cnc3c(=O)[nH]c(N)nc32)C(=O)Cn2cnc3c(=O)[nH]c(N)nc32)C(=O)Cn2cnc3c(N)nc(NCCCCCN)nc32)C(=O)Cn2ccc(N)nc2=O)C(=O)Cn2cnc3c(=O)[nH]c(N)nc32)C(=O)Cn2cc(C)c(=O)[nH]c2=O)C(=O)Cn2cnc3c(=O)[nH]c(N)nc32)C(=O)Cn2cc(C)c(=O)[nH]c2=O)C(=O)Cn2cnc3c(=O)[nH]c(N)nc32)c(=O)[nH]c1=O,> 90,inactive,Dose-dependent-effect,–,–
Cc1cn(CC(=O)N(CCN)CC(=O)NCCN(CC(=O)NCCN(CC(=O)NCCN(CC(=O)NCCN(CC(=O)NCCN(CC(=O)NCCN(CC(=O)NCCN(CC(=O)NCCN(CC(=O)NCCN(CC(=O)NCCN(CC(=O)NCCN(CC(=O)NCCN(CC(=O)NCCN(CC(=O)O)C(=O)Cn2ccc(N)nc2=O)C(=O)Cn2cc3cc(COCCN)[nH]c3nc2=O)C(=O)Cn2cc(C)c(=O)[nH]c2=O)C(=O)Cn2ccc(N)nc2=O)C(=O)Cn2cnc3c(=O)[nH]c(NCCCCCCN)nc32)C(=O)Cn2cnc3c(=O)[nH]c(N)nc32)C(=O)Cn2cnc3c(N)nc(NCCCCCN)nc32)C(=O)Cn2ccc(N)nc2=O)C(=O)Cn2cnc3c(=O)[nH]c(NCCCCCCN)nc32)C(=O)Cn2cc(C)c(=O)[nH]c2=O)C(=O)Cn2cnc3c(=O)[nH]c(NCCCCCCN)nc32)C(=O)Cn2cc(C)c(=O)[nH]c2=O)C(=O)Cn2cnc3c(=O)[nH]c(NCCCCCCN)nc32)c(=O)[nH]c1=O,70.5,inactive,–,–,–
Cc1cn(CC(=O)N(CCNC(=O)CN(CCNC(=O)CN(CCNC(=O)CN(CCNC(=O)CN(CCNC(=O)CN(CCNC(=O)CN(CCNC(=O)CN(CCNC(=O)CN(CCN)C(=O)Cn2cnc3c(N)nc(NCCCCCN)nc32)C(=O)Cn2ccc(N)nc2=O)C(=O)Cn2cnc3c(=O)[nH]c(N)nc32)C(=O)Cn2cnc3c(=O)[nH]c(N)nc32)C(=O)Cn2ccc(N)nc2=O)C(=O)Cn2cc(C)c(=O)[nH]c2=O)C(=O)Cn2cc3cc(COCCN)[nH]c3nc2=O)C(=O)Cn2ccc(N)nc2=O)CC(=O)NCCN(CC(=O)NCCN(CC(=O)NCCN(CC(=O)NCCN(CC(=O)NCCN(CC(=O)NCCN(CC(=O)NCCN(CC(=O)NCCN(CC(=O)NCCN(CC(=O)NCCN(CC(=O)NCCN(CC(=O)O)C(=O)Cn2cnc3c(=O)[nH]c(N)nc32)C(=O)Cn2cnc3c(N)nc(NCCCCCN)nc32)C(=O)Cn2ccc(N)nc2=O)C(=O)Cn2ccc(N)nc2=O)C(=O)Cn2cnc3c(N)nc(NCCCCCN)nc32)C(=O)Cn2ccc(N)nc2=O)C(=O)Cn2cnc3c(=O)[nH]c(N)nc32)C(=O)Cn2cnc3c(=O)[nH]c(NCCCCCCN)nc32)C(=O)Cn2cc(C)c(=O)[nH]c2=O)C(=O)Cn2ccc(N)nc2=O)C(=O)Cn2ccc(N)nc2=O)c(=O)[nH]c1=O,> 90,inactive,Dose-dependent-effect,–,–
Cc1cn(CC(=O)N(CCNC(=O)CN(CCNC(=O)CN(CCN)C(=O)Cn2ccc(N)nc2=O)C(=O)Cn2ccc(N)nc2=O)CC(=O)NCCN(CC(=O)NCCN(CC(=O)NCCN(CC(=O)NCCN(CC(=O)NCCN(CC(=O)NCCN(CC(=O)NCCN(CC(=O)NCCN(CC(=O)NCCN(CC(=O)NCCN(CC(=O)NCCN(CC(=O)O)C(=O)Cn2cnc3c(=O)[nH]c(N)nc32)C(=O)Cn2cnc3c(N)ncnc32)C(=O)Cn2cc3cc(COCCN)[nH]c3nc2=O)C(=O)Cn2ccc(N)nc2=O)C(=O)Cn2cnc3c(N)nc(NCCCCCN)nc32)C(=O)Cn2ccc(N)nc2=O)C(=O)Cn2cnc3c(=O)[nH]c(N)nc32)C(=O)Cn2cnc3c(=O)[nH]c(NCCCCCCN)nc32)C(=O)Cn2cc(C)c(=O)[nH]c2=O)C(=O)Cn2ccc(N)nc2=O)C(=O)Cn2cc3cc(COCCN)[nH]c3nc2=O)c(=O)[nH]c1=O,78.1,inactive,–,–,–
Cc1cn(CC(=O)N(CCNC(=O)CN(CCNC(=O)CN(CCNC(=O)CN(CCNC(=O)CN(CCNC(=O)CN(CCNC(=O)CN(CCNC(=O)CN(CCNC(=O)CN(CCNC(=O)CN(CCNC(=O)CN(CCNC(=O)CN(CCNC(=O)CN(CCN)C(=O)Cn2cnc3c(N)nc(NCCCCCN)nc32)C(=O)Cn2ccc(N)nc2=O)C(=O)Cn2cc(C)c(=O)[nH]c2=O)C(=O)Cn2ccc(N)nc2=O)C(=O)Cn2cnc3c(N)nc(NCCCCCN)nc32)C(=O)Cn2ccc(N)nc2=O)C(=O)Cn2cnc3c(=O)[nH]c(NCCCCCCN)nc32)C(=O)Cn2cnc3c(=O)[nH]c(N)nc32)C(=O)Cn2cc3cc(COCCN)[nH]c3nc2=O)C(=O)Cn2cc(C)c(=O)[nH]c2=O)C(=O)Cn2ccc(N)nc2=O)C(=O)Cn2cc3cc(COCCN)[nH]c3nc2=O)CC(=O)NCCN(CC(=O)O)C(=O)Cn2ccc(N)nc2=O)c(=O)[nH]c1=O,74.1,inactive,–,Mild_effect; Mild Dose Dependent Effect Observed,Active
Cc1cn(CC(=O)N(CCNC(=O)CN(CCNC(=O)CN(CCNC(=O)CN(CCNC(=O)CN(CCNC(=O)CN(CCNC(=O)CN(CCNC(=O)CN(CCNC(=O)CN(CCNC(=O)CN(CCNC(=O)CN(CCNC(=O)CN(CCNC(=O)CN(CCN)C(=O)Cn2cnc3c(N)nc(NCCCCCN)nc32)C(=O)Cn2ccc(N)nc2=O)C(=O)Cn2cc(C)c(=O)[nH]c2=O)C(=O)Cn2ccc(N)nc2=O)C(=O)Cn2cnc3c(N)nc(NCCCCCN)nc32)C(=O)Cn2ccc(N)nc2=O)C(=O)Cn2cnc3c(=O)[nH]c(N)nc32)C(=O)Cn2cnc3c(=O)[nH]c(N)nc32)C(=O)Cn2ccc(N)nc2=O)C(=O)Cn2cc(C)c(=O)[nH]c2=O)C(=O)Cn2cc3cc(COCCN)[nH]c3nc2=O)C(=O)Cn2ccc(N)nc2=O)CC(=O)NCCN(CC(=O)NCCN(CC(=O)NCCN(CC(=O)NCCN(CC(=O)NCCN(CC(=O)NCCN(CC(=O)NCCN(CC(=O)O)C(=O)Cn2cnc3c(N)nc(NCCCCCN)nc32)C(=O)Cn2ccc(N)nc2=O)C(=O)Cn2cnc3c(=O)[nH]c(N)nc32)C(=O)Cn2cnc3c(=O)[nH]c(NCCCCCCN)nc32)C(=O)Cn2cc(C)c(=O)[nH]c2=O)C(=O)Cn2ccc(N)nc2=O)C(=O)Cn2ccc(N)nc2=O)c(=O)[nH]c1=O,> 90,inactive,–,–,–
Cc1cn(CC(=O)N(CCNC(=O)CN(CCNC(=O)CN(CCNC(=O)CN(CCNC(=O)CN(CCNC(=O)CN(CCN)C(=O)Cn2cnc3c(N)nc(NCCCCCN)nc32)C(=O)Cn2cnc3c(N)ncnc32)C(=O)Cn2cnc3c(=O)[nH]c(N)nc32)C(=O)Cn2cnc3c(=O)[nH]c(N)nc32)C(=O)Cn2cc(C)c(=O)[nH]c2=O)CC(=O)NCCN(CC(=O)NCCN(CC(=O)NCCN(CC(=O)NCCN(CC(=O)NCCN(CC(=O)NCCN(CC(=O)NCCN(CC(=O)NCCN(CC(=O)NCCN(CC(=O)NCCN(CC(=O)NCCN(CC(=O)NCCN(CC(=O)NCCN(CC(=O)NCCN(CC(=O)O)C(=O)Cn2cnc3c(N)nc(NCCCCCN)nc32)C(=O)Cn2ccc(N)nc2=O)C(=O)Cn2cnc3c(N)ncnc32)C(=O)Cn2cnc3c(N)nc(NCCCCCN)nc32)C(=O)Cn2cc(C)c(=O)[nH]c2=O)C(=O)Cn2ccc(N)nc2=O)C(=O)Cn2ccc(N)nc2=O)C(=O)Cn2cnc3c(=O)[nH]c(N)nc32)C(=O)Cn2cnc3c(=O)[nH]c(N)nc32)C(=O)Cn2cnc3c(N)nc(NCCCCCN)nc32)C(=O)Cn2ccc(N)nc2=O)C(=O)Cn2ccc(N)nc2=O)C(=O)Cn2cc3cc(COCCN)[nH]c3nc2=O)C(=O)Cn2ccc(N)nc2=O)c(=O)[nH]c1=O,> 90,inactive,–,–,–
Cc1cn(CC(=O)N(CCNC(=O)CN(CCNC(=O)CN(CCNC(=O)CN(CCNC(=O)CN(CCNC(=O)CN(CCNC(=O)CN(CCNC(=O)CN(CCNC(=O)CN(CCNC(=O)CN(CCNC(=O)CN(CCNC(=O)CN(CCNC(=O)CN(CCNC(=O)CN(CCN)C(=O)Cn2cc(C)c(=O)[nH]c2=O)C(=O)Cn2cnc3c(=O)[nH]c(NCCCCCCN)nc32)C(=O)Cn2cc(C)c(=O)[nH]c2=O)C(=O)Cn2cnc3c(=O)[nH]c(NCCCCCCN)nc32)C(=O)Cn2ccc(N)nc2=O)C(=O)Cn2cnc3c(N)nc(NCCCCCN)nc32)C(=O)Cn2cnc3c(=O)[nH]c(N)nc32)C(=O)Cn2cnc3c(=O)[nH]c(NCCCCCCN)nc32)C(=O)Cn2ccc(N)nc2=O)C(=O)Cn2cc(C)c(=O)[nH]c2=O)C(=O)Cn2ccc(N)nc2=O)C(=O)Cn2cc3cc(COCCN)[nH]c3nc2=O)C(=O)Cn2ccc(N)nc2=O)CC(=O)O)c(=O)[nH]c1=O,75,inactive,–,Mild_effect; Mild Dose Dependent Effect Observed,Active
